Like-named read-outs stand apart in the source and are kept apart here.
How the values were obtained:
[1] = target: T1, recombinant ROCK2 (amino acids 1-552) (Homo sapiens, UniProt O75116); assay: Z'-lyte kinase assay, ROCK2; format: biochemical
T1 construct: ROCK2 (amino acids 1-552) proteins were purchased from ThermoFisher Scientific; purchased ThermoFisher Scientific
Procedure: (§1) Determination of compounds ROCK inhibitory activity in vitro (Z'lyte assay): recombinant ROCK1 (amino acids 1-535) and ROCK2 (amino acids 1-552) proteins were purchased from ThermoFisher Scientific. Compounds activities were measured by Z′-lyte kinase kit (ThermoFisher Scientific) and IC50s were calculated.
(§2) Table 2, below, provides in vitro and cellular inhibition of ROCKs by compounds of the invention. Compounds activities were measured by Z′-lyte kinase kit (ThermoFisher Scientific). […] IC50s were calculated using the GraphPad Prism software with kinase activities data that were collected from points 9 serial dilution of compounds treatment. The ROCK inhibition in A7R5 cells and NIH3T3 (Acta2-Luc) cells was performed as described above.

[2] = target: T2, recombinant ROCK1 (amino acids 1-535) (Homo sapiens, UniProt Q13464); assay: Z'-lyte kinase assay, ROCK1; format: biochemical
T2 construct: recombinant ROCK1 (amino acids 1-535) and ROCK2; purchased ThermoFisher Scientific
T2 sequence (Q13464 1-535): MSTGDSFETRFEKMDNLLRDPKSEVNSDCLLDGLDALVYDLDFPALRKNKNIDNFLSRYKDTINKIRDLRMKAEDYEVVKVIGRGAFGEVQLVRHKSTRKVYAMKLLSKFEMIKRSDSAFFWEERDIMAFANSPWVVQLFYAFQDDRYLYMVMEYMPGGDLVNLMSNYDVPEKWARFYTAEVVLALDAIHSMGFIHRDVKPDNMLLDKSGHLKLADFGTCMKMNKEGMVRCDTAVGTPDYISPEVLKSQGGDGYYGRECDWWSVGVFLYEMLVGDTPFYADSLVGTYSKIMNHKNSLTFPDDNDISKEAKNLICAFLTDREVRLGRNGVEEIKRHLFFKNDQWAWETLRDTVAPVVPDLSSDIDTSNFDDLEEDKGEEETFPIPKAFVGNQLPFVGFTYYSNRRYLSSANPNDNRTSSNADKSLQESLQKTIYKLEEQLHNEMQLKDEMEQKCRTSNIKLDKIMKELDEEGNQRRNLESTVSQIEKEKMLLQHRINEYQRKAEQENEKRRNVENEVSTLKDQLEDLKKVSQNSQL
Procedure: as §1, §2

[3] = test system: phospho-myosin light chains (ppMlc, Thr18/Ser19) in A7R5 cells; assay: A7R5 in-cell ELISA, phospho-myosin light chain; format: cell-based, rat; details: Rattus norvegicus
Procedure: Determination of compounds ROCK inhibitory activity in A7R5 cells: rat aortic smooth muscle cell line A7R5 cells were maintained and treated in DMEM medium with 10% of fetal bovine serum. Cells were seeded with density of 5,000 cells/well in 96-well plates for 24 hours and subsequently treated 90 min with testing compounds. Cells were then fixed and processed according to the In-Cell ELISA Colorimetric Detection Kit manual (Thermo Scientific). Cellular phospho-myosin light chains (ppMlc, Thr18/Ser19) levels were determined after treatments of DMSO control or test compounds using the In-Cell ELISA kit. The percent inhibition rate was calculated by applying the data obtained with 1 μM (or 10 μM) compound treatment to the formula, [1-(compound/DMSO)]×100%. ppMlc data obtained with 9 points 2-fold serial dilution of compounds were applied to the nonlinear regression curve fit function of the GraphPad Prism software to calculate the In cell IC50s.
A7R5 cells were treated with 9 points 2 fold serial dilution of compounds and ppMlc (T18/S19) levels were determined in order to calculate cellular IC50s of the compounds.
Two steps of measurements were adopted for pMLC/A7R5 IC50. Percent inhibition rates were calculated with a single dose (1 μM or 10 μM) compounds treatment to screen for active compounds and then cellular IC50s were measured only in compounds that have over 50% of inhibition rates.

[4] = test system: luciferase reporter driven by the human ACTA2 gene promoter in NIH3T3 cells; assay: NIH3T3 cells Acta2-promoter driven-luciferase assay; format: cell-based; details: plus TGF 1, 24 hr, read-out: NIH3T3, Acta2-luc, IC50
Procedure: NIH3T3 cells Acta2-promoter driven-luciferase assay: A NIH3T3 cell line stably expressing a luciferase reporter driven by the human ACTA2 gene promoter (−1000-1 bp) was established (NIH3T3-Acta2-luciferase). The cells were plated to confluence and treated with the test compounds plus TGF 1 for 24 hr. Cells were then lysed and luciferase activity was measured using the LightSwitch luciferase kit from Active Motif.

[5] = test system: ROCK target MYPT1 phosphorylation in HCT116 ROCK1KO and ROCK2KO cells; assay: pMypt (T853) western blotting in HCT116 ROCK1KO and ROCK2KO cells; format: cell-based; details: 110 nM, 90 min
Procedure: FIG. 2. […] HCT116 cells with either a ROCK1 or ROCK2 knockout (ROCK1KO and ROCK2KO, respectively) were treated with the inhibitor for 90 min and pMypt (T853) levels were visualized by western blotting.
A CRISPR/CAS9 system was used to create HCT116 cells containing a knock out for either ROCK1 or ROCK2. The ROCK1KO and ROCK2KO cells were treated with the Example 2 compound for 90 min and pMypt (T853) levels were visualized by western blotting.

[6] = test system: Human oligodendrocyte/neuron progenitor cells; assay: Human oligodendrocyte/neuron progenitor cell differentiation (Nestin/MAP2 staining); format: cell-based; details: cultured 2 & 14 days with or without inhibitor
Procedure: FIG. 3. Human oligodendrocyte/neuron progenitor cells were cultured in vitro with or without ROCK inhibitor (Example 2 compound) for 2 & 14 days. Nestin and MAP2 proteins were visualized by staining with commercial antibodies to identify different stages of neuronal cell differentiation.
Human oligodendrocyte/neuron progenitor cells were cultured in vitro with or without ROCK inhibitor for 2 & 14 days. Nestin and MAP2 proteins were visualized by staining with commercial antibodies to identify different stages of neuronal cell differentiation.

[7] = test system: rat oligodendrocytes with rat dorsal root ganglia (DRG) explants; assay: Rat oligodendrocytes with rat dorsal root ganglia (DRG) explants co-culture; format: cell-based
Description: At the same time, the ROCK inhibitor also facilitated axonal support of oligodentrocye by organized manner, which was visualized by staining the mature oligodendrocyte marker MBP.

[8] = Mouse pharmacokinetic study, plasma and brain distribution 2 hours after dosing; format: in vivo; details: for concentration at 2 h / Kp at 2 h: 2 hours post-dose; for Kp at 2 h: brain/plasma, read-out: Brain/Plasma Ratio
Procedure: In a mouse pharmacokinetic study, 2 hours after dosing, animal tissues were harvested to determine the compound distribution.

[9] = Brain and plasma concentrations in mouse by HPLC/MS/MS after 2.5 mg/kg IV; format: in vivo; details: for concentration at 0.25 h / concentration at 2 h: iv; for Kp at 0.25 h / Kp at 2 h: brain/plasma; for Kp at 0.25 h: read-out: Mean Brain/Plasma Ratio at 0.25 hr; for Kp at 2 h: read-out: Mean Brain/Plasma Ratio at 2 hr
Procedure: Brain and plasma concentrations of select ROCK inhibitors were also evaluated in mouse by HPLC/MS/MS at 15 min and 2 hrs following 2.5 mg/kg IV drug administration.

[10] = cited from earlier work
[11] = test system: sAPPP; details: direct i.p. injection into hippocampus, rodent model of AD; cited from earlier work
[12] = 1.5 h, A7R5 cells, 90 min, read-out: pMLC IC50 A7R5
[13] = A7R5 cells, ppMlc (T18/S19), 9 points 2 fold serial dilution, read-out: ppMIc IC50
[14] = brain, 2.5 mg/kg, read-out: Mean Conc. at 0.25 hr, Brain
[15] = plasma, 2.5 mg/kg, read-out: Mean Conc. at 0.25 hr, Plasma
[16] = plasma, 2.5 mg/kg, read-out: Mean Conc. at 2 hr, Plasma

T1 sequence (O75116 1-552): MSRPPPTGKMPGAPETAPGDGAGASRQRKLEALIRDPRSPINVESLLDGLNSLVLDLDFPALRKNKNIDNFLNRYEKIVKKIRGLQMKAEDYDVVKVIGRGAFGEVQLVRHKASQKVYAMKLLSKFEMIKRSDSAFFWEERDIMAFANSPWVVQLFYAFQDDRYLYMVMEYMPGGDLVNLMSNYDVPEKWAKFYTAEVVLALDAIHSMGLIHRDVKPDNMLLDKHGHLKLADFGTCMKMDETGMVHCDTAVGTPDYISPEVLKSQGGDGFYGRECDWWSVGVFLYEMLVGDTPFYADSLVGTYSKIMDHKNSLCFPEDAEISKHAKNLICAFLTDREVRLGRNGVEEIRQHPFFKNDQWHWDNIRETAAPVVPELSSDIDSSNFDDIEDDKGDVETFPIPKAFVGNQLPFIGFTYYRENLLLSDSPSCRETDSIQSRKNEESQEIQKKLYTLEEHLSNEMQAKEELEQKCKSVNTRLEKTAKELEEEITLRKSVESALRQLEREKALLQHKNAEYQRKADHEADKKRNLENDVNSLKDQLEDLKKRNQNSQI

Work on `CNC(C(=O)Nc1ccc2[nH]ncc2c1)c1ccccc1` (centres unmarked) [Example 2, N-(1H-indazol-5-yl)-2-(methylamino)-2-phenylacetamide] yielded an IC50 [1] of 21 nM, an inhibition at 3 µM ([1]; 3 μM, read-out: ROCK2 % inh) of 98.7% and an IC50 [2] of 25 nM. It also gave an inhibition at 3 µM ([2]; 3 μM, read-out: ROCK1 % inh) of 98.8%, an IC50 [3, 12] of 304 nM and an IC50 [3, 13] of 304 nM. For the same molecule, the IC50 ([3]; pMLC in A7R5 cells, read-out: cellular ROCK inhibition IC50) was 252 nM, the IC50 [4] was 885 nM and the “pMypt (T853) levels, MYPT1 phosphorylation” value [5] was “efficiently blocked”. For the same molecule, the “mature neuronal cell marker MAP2 expression” value [6] was “significantly facilitated”, the neurite outgrowth [6] was “improved” and the “axonal support of oligodendrocyte (MBP / neurofilament staining)” value [7] was “facilitated”. For the same molecule, the “cytoskeletal organization / myelin segments (neurofilament staining)” value [7] was “producing many shorter ordered myelin segments”, the BBB penetrant property ([8]; 2 hours after dosing) was “excellent” and the concentration at 2 h ([8]; brain, IV 10 mg base/kg, read-out: Brain Concentration) was 699 ng/g. For the same molecule, the concentration at 2 h ([8]; brain, PO 10 mg base/kg, read-out: Brain Concentration) was 700 ng/g, the concentration at 2 h ([8]; brain, PO 30 mg base/kg, read-out: Brain Concentration) was 2860 ng/g and the concentration at 2 h ([8]; brain, PO 100 mg base/kg, read-out: Brain Concentration) was 19400 ng/g. For the same molecule, the Kp at 2 h ([8]; IV 10 mg base/kg) was 3.31, the Kp at 2 h ([8]; PO 10 mg base/kg) was 1.73 and the Kp at 2 h ([8]; PO 30 mg base/kg) was 2.04. It also gave a Kp at 2 h ([8]; PO 100 mg base/kg) of 2.08, a concentration at 2 h ([8]; plasma, IV 10 mg base/kg, read-out: Plasma Concentration) of 211 ng/mL and a concentration at 2 h ([8]; plasma, PO 10 mg base/kg, read-out: Plasma Concentration) of 405 ng/mL. It also gave a concentration at 2 h ([8]; plasma, PO 30 mg base/kg, read-out: Plasma Concentration) of 1400 ng/mL and a concentration at 2 h ([8]; plasma, PO 100 mg base/kg, read-out: Plasma Concentration) of 9290 ng/mL.

Molecule `CNC(C(=O)Nc1ccc2[nH]ncc2c1)c1ccc(Oc2cccc(OC)c2)cc1` (centres unmarked) [Example 15, N-(1H-indazol-5-yl)-2-(4-(3-methoxyphenoxy)phenyl)-2-(methylamino)acetamide] has an IC50 [1] of 10 nM, an IC50 [2] of 13 nM and an IC50 [3, 12] of 124 nM. The IC50 [3, 13] was 124 nM, the IC50 [4] was 219 nM and the concentration at 0.25 h [9, 14] was 853 ng/g. It also gave a concentration at 2 h ([9]; brain, 2.5 mg/kg, read-out: Mean Conc. at 2 hr, Brain) of 288 ng/g, a Kp at 0.25 h [9] of 2.17 and a Kp at 2 h [9] of 6.99. The concentration at 0.25 h [9, 15] was 394 ng/mL and the concentration at 2 h [9, 16] was 41.4 ng/mL.

`CNC(C(=O)Nc1ccc2[nH]ncc2c1)c1cccc(OC)c1` (centres unmarked) [Example 41, N-(1H-indazol-5-yl)-2-(3-methoxyphenyl)-2-(methylamino)acetamide] showed an IC50 [1] of 17 nM, an inhibition at 1 µM ([1]; @ 1 μM, read-out: ROCK2 % inh) of 99.5% and an IC50 [2] of 3.2 nM. The IC50 [3, 12] was 304 nM, the IC50 [4] was 539 nM and the “Mean Conc. at 0.25 hr, Brain” value ([9]; 2.5 mg/kg) was 541 ng/g. The concentration at 0.25 h [9, 14] was 566 ng/g, the Kp at 0.25 h [9] was 1.33 and the Kp at 2 h [9] was 8.41. The concentration at 0.25 h [9, 15] was 427 ng/mL and the concentration at 2 h [9, 16] was 2.14 ng/mL.

In the case of `CNC(C(=O)Nc1ccc2[nH]ncc2c1)c1ccccc1Cl` (centres unmarked) [Example 47, 2-(2-chlorophenyl)-N-(1H-indazol-5-yl)-2-(methylamino)acetamide], the IC50 [1] is reported as 135 nM, the IC50 [2] is reported as 8.3 nM and the IC50 [3, 12] is reported as 461 nM. It also gave an IC50 [3, 13] of 461 nM and an IC50 [4] of 659 nM.

For `CCNC(C(=O)Nc1ccc2[nH]ncc2c1)c1cccc(Cl)c1` (centres unmarked) [Example 58, 2-(3-chlorophenyl)-2-(ethylamino)-N-(1H-indazol-5-yl)acetamide], the IC50 [1] was 64 nM, the inhibition at 0.5 µM ([1]; @ 0.5 μM, read-out: ROCK2 % inh) was 61% and the inhibition at 0.5 µM ([2]; @ 0.5 μM, read-out: ROCK1 % inh) was 85%. The IC50 [3, 12] was 722 nM and the IC50 [4] was 1090 nM.

In the case of `CN(C)CCOc1cc(-c2cn[nH]c2)ccc1NC(=O)C1COc2ccccc2O1` (centres unmarked) [SR3677], the brain penetration ([10]; in vivo) is given as “lack of brain penetration”, the half-life ([10]; oral PK properties) is given as < 1 h and the “F (oral)” value ([10]; oral) is given as 5%. The “effect on sAPPP” value [11] was “lowering sAPPP”.
